Results published in patent US12559750B2, “Methods and compositions for treatment of polycystic kidney disease” (Regulus Therapeutics Inc., priority 2021, dated 2026).

Tests used:
[1] = system: miR-17; assay: miR-17 luciferase sensor assay in HeLa cells; format: cell-based
Method: The in vitro potency of certain compounds was evaluated using a miR-17 luciferase sensor assay which uses a luciferase reporter vector for miR-17, with two fully complementary miR-17 binding sites in tandem in the 3′-UTR of the luciferase gene. HeLa cells were co-transfected with the luciferase reporter vector and an exogenous miR-17-expression vector that acted to repress the luciferase signal.

[2] = molecular target: AMPA-R; assay: [3H]AMPA radioligand binding assay on rat brain synaptic membranes;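 further: competition binding in which test compounds at rising concentrations displace [3H]AMPA from AMPA-R on rat brain synaptic membranes, with reduced bound radioligand as read-out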
Method: The activity of anti-miR-17 compounds was evaluated in a radioligand binding assay which measured the binding of the [^3H] AMPA ligand to the AMPA-R present on rat brain synaptic membranes, in the presence of increasing concentrations of anti-miR-17 compound, anti-miR-17 compounds with affinity for the AMPA-R will bind to and compete with the binding of the [^3H] AMPA ligand.
5.0 nM of the ligand [^3H] AMPA, 1.0 mM of the non-specific ligand L-Glutamic acid, and anti-miR compound at uM concentrations were incubated with synaptic membranes prepared from Wistar rat cerebral cortex for 90 minutes.
The compounds were tested in the radioligand binding assay described herein, to determine the ability of the anti-miR-17 compounds to and compete with the binding of the [3H] AMPA ligand.

[3] = molecular target: T1, AMPA-R (GluA1/GluA4) (Homo sapiens, UniProt P42261+P48058); assay: Manual whole-cell patch clamp, ChanTest GluA1/GluA4 EZCells; format: cell-based
T1 construct: host or cells: ChanTest GluA1/GluA4 EZCells
T1 sequence (P42261 19-906): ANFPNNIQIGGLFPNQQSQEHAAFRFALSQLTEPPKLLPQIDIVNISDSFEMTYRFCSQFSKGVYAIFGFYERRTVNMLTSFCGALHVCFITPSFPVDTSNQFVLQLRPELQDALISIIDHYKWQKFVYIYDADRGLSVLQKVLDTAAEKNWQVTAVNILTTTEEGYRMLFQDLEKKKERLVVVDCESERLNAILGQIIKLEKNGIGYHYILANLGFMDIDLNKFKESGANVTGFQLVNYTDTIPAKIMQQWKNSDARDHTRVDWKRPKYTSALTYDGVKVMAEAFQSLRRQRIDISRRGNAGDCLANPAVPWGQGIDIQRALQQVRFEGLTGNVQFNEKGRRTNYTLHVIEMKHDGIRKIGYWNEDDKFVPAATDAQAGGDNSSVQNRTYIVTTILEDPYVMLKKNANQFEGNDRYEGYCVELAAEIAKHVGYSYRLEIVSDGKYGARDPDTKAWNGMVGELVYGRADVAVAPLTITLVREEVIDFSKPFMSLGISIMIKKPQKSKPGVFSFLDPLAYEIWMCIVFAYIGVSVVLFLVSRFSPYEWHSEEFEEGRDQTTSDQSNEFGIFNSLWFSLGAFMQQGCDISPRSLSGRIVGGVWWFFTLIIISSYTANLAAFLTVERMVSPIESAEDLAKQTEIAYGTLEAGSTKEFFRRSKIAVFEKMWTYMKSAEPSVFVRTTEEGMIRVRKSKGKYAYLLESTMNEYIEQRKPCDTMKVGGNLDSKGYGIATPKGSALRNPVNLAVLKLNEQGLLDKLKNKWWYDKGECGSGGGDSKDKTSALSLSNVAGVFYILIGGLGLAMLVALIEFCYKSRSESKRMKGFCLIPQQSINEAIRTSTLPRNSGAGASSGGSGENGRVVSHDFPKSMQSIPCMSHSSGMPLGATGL
T1 sequence (P48058 21-902): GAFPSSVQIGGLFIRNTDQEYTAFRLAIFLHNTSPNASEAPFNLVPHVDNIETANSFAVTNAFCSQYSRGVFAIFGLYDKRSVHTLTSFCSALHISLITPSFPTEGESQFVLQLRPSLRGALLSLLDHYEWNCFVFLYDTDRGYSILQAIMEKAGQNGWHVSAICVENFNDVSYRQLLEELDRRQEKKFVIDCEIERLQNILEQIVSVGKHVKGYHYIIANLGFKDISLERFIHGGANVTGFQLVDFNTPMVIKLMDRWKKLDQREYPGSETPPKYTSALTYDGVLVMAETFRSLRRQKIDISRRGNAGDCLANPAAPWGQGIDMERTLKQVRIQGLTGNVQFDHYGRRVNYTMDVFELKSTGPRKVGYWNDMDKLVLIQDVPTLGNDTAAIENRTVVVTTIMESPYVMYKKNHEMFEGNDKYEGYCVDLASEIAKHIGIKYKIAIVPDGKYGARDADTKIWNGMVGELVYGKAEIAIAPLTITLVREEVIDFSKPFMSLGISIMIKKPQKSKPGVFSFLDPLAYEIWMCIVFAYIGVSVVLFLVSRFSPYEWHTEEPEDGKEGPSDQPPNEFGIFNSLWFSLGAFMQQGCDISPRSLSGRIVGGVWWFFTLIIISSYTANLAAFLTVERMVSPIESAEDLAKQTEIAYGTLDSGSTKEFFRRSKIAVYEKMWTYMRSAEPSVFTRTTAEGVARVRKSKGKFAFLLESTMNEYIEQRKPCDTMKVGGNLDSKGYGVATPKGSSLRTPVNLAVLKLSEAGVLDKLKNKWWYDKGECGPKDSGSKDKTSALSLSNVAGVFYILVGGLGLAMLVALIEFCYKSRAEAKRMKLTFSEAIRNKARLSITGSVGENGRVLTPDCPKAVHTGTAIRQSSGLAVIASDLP
Method: To evaluate functional antagonism of anti-miR-17 oligonucleotides towards the AMPA-R, certain oligonucleotides were tested using the manual whole-cell patch clamp technique, which records membrane currents as a measure of AMPA-R activity.
Manual whole-cell patch clamp studies were performed by Metrion Biosciences (Cambridge, UK). Whole-cell voltage clamp experiments were performed at room temperature (18-21° C.) using an EPC10 patch clamp amplifier using Patchmaster software (HEKA Elektronik). Glass patch pipettes were fabricated from borosilicate glass capillaries (Harvard Apparatus) to resistances between 1.4 and 2.5 MΩ. Membrane currents were recorded using the whole-cell patch clamp technique. ChanTest® GluA1/GluA4 EZCells were clamped at a holding potential of −80 mV and membrane currents elicited by 10 μM(S)-AMPA delivered using a VC38 perfusion system (ALA Scientific Instruments). The […] current amplitude values were measured with each application of 10 μM(S)-AMPA. The fractional change of current amplitude produced by each concentration of compound was calculated relative to the control current (pre-compound) and expressed as percentage change (% inhibition) for each cell. RGLS4326 was tested in a separate study from all other compounds in Table 6.

[4] = system: C57Bl/6J male mice; assay: ICV maximum tolerated dose study, Study 1; format: in vivo, mouse; conditions: for Mortality/total number of mice: 7-day
Method: Compounds (RG-NG-1017, RGLS4326, RG-NG-1001) were evaluated in a pilot maximum tolerated dose (MTD) study (discussed below). RG-NG-1017, RGLS4326 and RG-NG-1001 were initially evaluated at 4 dose-levels each. RG-NG-1017 was included for evaluation as a non-AMPA-R binding compound, as compared to RGLS4326 and RG-NG-1001, which bind AMPA-R. C57Bl/6J male mice (Jackson Laboratories), age 6-7 weeks, were used in this study. Mice were assigned randomly to treatment groups, and the study was blinded. Animals were allowed to acclimate for no less than 5 days and housed on a 12 hr light/dark cycle (lights on 7:00 AM). No more than 4 mice were house in each cage in a ventilated cage rack system. The diet consisted of standard rodent chow and water ad libitum.
The following parameters were used for this study: • 1. Route(s) of administration: intracerebroventricular (ICV) dosing of RG-NG-1017, RG-NG-1001, RGLS4326 • 2. Dose Volume(s): 4 μL • 3. Formulation(s): vehicle, Ca^2+ and Mg^2+ free dPBS • 4. Dose Frequency: Once • 5. Study duration: 8 Days • 6. Number of Groups: 3 • 7. Number of animals per group: (2-4 each group) • 8. Total number of animals: […]
For the ICV administration, mice were anesthetized and positioned for injections. The skin over the skull was incised, and a small hole was made in the skull above the target using a microdrill. The stereotactic coordinates were anteroposterior (AP), −0.4 mm; mediolateral (ML), +/−1.0-1.5 mm; dorsoventral (DV), −3.0 mm from the bregma for injection into both the right and left lateral cerebral ventricles (Hironaka et al, 2015). Animals were injected unilaterally with 4 μl into the right lateral cerebral ventricle. Compounds were injected over 1-2 min, and the needle was left in place for 0.5-1 min prior to withdrawal. The incision was closed with sutures, wound clips, or VetBond.
Following ICV treatment (Day 0), animals were monitored for 7 days in which daily health checks, body weight, and mortality was recorded. On Day 7, brain and kidney were collected and fixed (10% formalin) and stored pending histology.

[5] = system: miR-17; assay: microRNA polysome shift assay (miPSA) in kidney of wild type mice; format: in vivo, mouse; set-up: scale not given here; conditions: seven days later
Method: In vivo potency was evaluated using the microRNA polysome shift assay (miPSA). This assay was used to determine the extent to which compounds directly engage the miR-17 target in the kidney in normal and PKD mice. The miPSA relies on the principle that active miRNAs bind to their mRNA targets in translationally active high molecular weight (HMW) polysomes, whereas the inhibited miRNAs reside in the low MW (LMW) polysomes. Treatment with anti-miR results in a shift of the microRNA from HMW polysomes to LMW polysomes. Thus, the miPSA provides a direct measurement of microRNA target engagement by a complementary anti-miR (Androsavich et al., Nucleic Acids Research, 2015, 44: e13).
Wild type mice were administered a single dose of 0.3 mg/kg, 3 mg/kg, or 30 mg/kg. Kidney tissue was collected seven days later and subjected to the miPSA. The mean displacement score for each treatment is shown in Table 15 (PBS, n=17; RGLS4326 30 mg/kg, n=10; all other treatments, n=4-5). The tested oligonucleotides displaced miR-17 from translationally active polysome (as measured by miPSA) in normal mouse kidneys.

[6] = system: mice; conditions: in vivo
Method: Each compound was tested in a single dose at 2000 mg/kg, and at escalating doses (100, 450, and 2000 mg/kg).

[7] = system: miR-17; assay: miR-17 PD-Sig in mouse kidney cell lines; format: cell-based
Method: The activity of certain compounds was evaluated using a mouse miR-17 Pharmacodynamic-Signature (miR-17 PD-Sig), which consists of the expression of 18 unique miR-17 target genes normalized by six reference housekeeping genes, to provide an unbiased and comprehensive assessment of miR-17 activity. The mouse miR-17 PD-Sig score was the calculated average of the 18 genes' individual log 2 fold changes (normalized by six housekeeping genes) compared to mock transfection (Lee et al., Nat. Commun., 2019, 10, 4148).
The PD-Sig for RGLS4326 in mIMCD3 cells (77.2, indicated by “*”) was not generated in this experiment; the value in Table 14 is that reported by Lee et al., Nat. Commun., 2019, 10, 4148. Blank cells in the table indicate that a compound was not tested in a particular cell line.

[8] = system: miR-17; assay: miR-17 PD-Sig in human kidney cell lines; format: cell-based

Sequence: ASGSCMAFCFUFUMUSUS [RG-NG-1017]
- Log2FC (37.5 nM) ([1]; 37.5 nM): 2.67
- EC50 ([1]; HeLa cells, 18- to 24-hour transfection): 15 nM
- IC50 ([2]; Experiment #2): > 100000 nM
- % Inhibition @ 0.1 uM ([2]; Experiment #2, 0.1 uM): 0.2%
- % Inhibition @ 1 uM ([2]; Experiment #2, 1 uM): −1.3%
- % Inhibition @ 10 uM ([2]; Experiment #2, 10 uM): 4.3%
- % Inhibition @ 100 uM ([2]; Experiment #2, 100 uM): 8.1%
- % Inhibition on membrane currents evoked with 10 uM (s)-AMPA (Mean ± SD) ([3]; 0.3 uM compound): 20.0 ± 6.3%
- % Inhibition on membrane currents evoked with 10 uM (s)-AMPA (Mean ± SD) ([3]; 3 uM compound): 28.2 ± 5.5%
- functional antagonism towards AMPA-R relative to RGLS4326 ([3]; in words): reduced functional antagonism towards AMPA-R
- MTD higher than that of RGLS4326 ([4]; single ICV): > 40 fold
- Mortality/total number of mice ([4]; single ICV 50 μg): 0/2
- Mortality/total number of mice ([4]; single ICV 100 μg): 0/2
- Mortality/total number of mice ([4]; single ICV 300 μg): 1/2
- Mortality/total number of mice ([4]; single ICV 600 μg): 0/2
- MTD ([4]; single ICV, C57Bl/6J mice, predicted from the study): no established MTD
- miPSA Displacement Score, Mean ([5]; single dose 3 mg/kg): 2.292
- miPSA Displacement Score, Mean ([5]; single dose 30 mg/kg): 2.793
- miPSA Displacement Score, Mean ([5]; single dose 0.3 m/kg): 2.077
- CNS toxicity in high-dose mouse toxicity studies [6]: no CNS-toxicity were observed
- CNS-related findings noted ([6]; mouse, sc, 2000 mg/kg): No
- EC50 ([7]; D52B5, mouse, PKD): 74.1 nM
- EC50 ([7]; mIMCD3, mouse, Normal): 134 nM
- EC50 ([8]; HK-2, human, Normal): 49.2 nM
- EC50 ([8]; WT9-7, human, PKD): 20.1 nM
